The values below come from patent publication US20140330152A1, “PROVIDING EVIDENCE WHETHER AN INT[…] IS CORRECTLY POSITIONED” (priority 2011, published 2014).

Structures are written as SMILES.

For the molecule `O=C([O-])O.[Na+]` [bicarbonate (as NaHCO3), sodium bicarbonate], the “amount of exhaled carbon dioxide on extravascular administration” value (administered extravascularly) is recorded as “does not substantially increase”. Moreover, the “clearance: amount of exhaled carbon dioxide returns to normal after administration is stopped” value (after intravenous administration is stopped) was “within the third exhalation”.
